Values joined by “and” are separate entries in the source; they are usually repeats but may differ in a detail not shown here. Equal entries are not always repeated. Structures can show the parent of a compound that is named as a salt.
Legend:
[1] = molecular target: T1, RNase P holoenzyme from Thermotoga maritima (Thermotoga maritima, UniProt Q9X1H4); experiment: Verification of deconvoluted hits by fluorescence- and gel-based assays with Mh substrate; format: biochemical; details: 250 μM (fluorescence) and 500 μM (gel)
T1 construct: made in house
T1 sequence (Q9X1H4 1-117): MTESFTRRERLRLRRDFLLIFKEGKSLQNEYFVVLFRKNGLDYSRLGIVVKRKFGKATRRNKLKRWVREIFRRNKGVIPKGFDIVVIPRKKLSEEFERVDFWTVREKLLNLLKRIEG
Experimental: For gel-based activity assays, reactions were prepared as described in the previous section (fluorescence activity assay), incubated for 1–15 min at 37–50°C, then loaded onto a denaturing 7 M urea–20% acrylamide gel in the case of the Mh substrate or 19% acrylamide (40% acrylamide/bisacrylamide 38.5:1.5) for the bipartite pre-tRNA substrate. The activity conditions for the gel reported in Figure 3A, to monitor the cleavage of the holoenzyme and P RNA, were under 100 mM AmOAc and 10 mM MgCl2. The gels (13 × 16 × 0.15 cm) were electrophoresed at 20 V/cm for 2–3 h. UV shadowing or ethidium bromide staining was used to visualize RNA cleavage. Detection of minihelix fluorescence was achieved without staining using a UV lamp with excitation at ∼254 nm.
Screening was performed with the Spectrum Collection (MicroSource Discovery Systems, Inc), which comprises 2560 compounds, each dissolved in DMSO at 10 mM. For our initial screening, compounds from this collection were tested in cocktails; eight compounds were tested per well in 384-well format. The final concentration of each compound in the cocktail was 1.25 mM. For the activity assay, reactions were set up in a total volume of 20 μl (13.5 μl of activity buffer, 1.5 μl of fluorescent Mh at 3.6 μM, 3 μl of DMSO or cocktail). […] The control wells included for each experiment series were: (i) reaction with twice (3 μl) the fluorescent Mh amount to avoid a signal saturation for the rest of the wells, (ii) two reactions with 10% DMSO (no cocktail), (iii) Mh substrate only, with no ribozyme, (iv) reaction with 100 mM CaCl2, which it is used as a negative control as it competes with MgCl2 (EDTA was not used because metal ions are essential to maintaining the structure of P RNA ([41])). The reaction was initiated by adding 2 μl of holoenzyme at 333 nM and monitored as described above. Each round of experiments contained twenty different cocktails corresponding to one row of a 384-well plate (Supplementary Figures S6 and S24). […] At this stage, each compound from the inhibitory cocktails was tested at a final concentration of 1 mM (2 μl of the 10 mM stock). We performed a gel-based assay for the nine selected compounds to qualitatively verify the results obtained by the fluorescence assay (Supplementary Figure S9). After deconvolution, each of the final four potential positive compounds was purchased individually from a different provider (Sigma-Aldrich) and tested inhibition using the T. maritima Mh, pre-tRNA and bipartite pre-tRNA substrates (Figure 2 and Supplementary Figures S10–S12 and S14).
Supplementary Figure 9. Consistent results between fluorescence- and gel-based assays. (A) Plots of fluorescent kinetic assays performed in standard conditions in the presence of the different hits at a concentration of 250 µM (four-fold lower concentration as compared to Supplementary Figure 8). (B) End-point assays of the RNase P holoenzyme from Thermotoga maritima in the presence of the non-fluorescent minihelix substrate and the different inhibitor hits at 500 µM, as assessed by 20% urea-PAGE.
The holoenzyme at 0.5 µM was preincubated at 37° C for 30 minutes in the presence of the individual compounds, centrifuged for 15 minutes at 12000g and incubated with the Mh substrate at 18 µM at 37 °C for 15 minutes. At this stage, iodoquinol was the only compound whose behavior was not corroborated in both assays (panels A and B). […]
experiments reported in this Figure. […] Alexidine […]

[2] = molecular target: T1, RNase P holoenzyme from Thermotoga maritima; experiment: Real-time fluorescence-based (FRET) RNase P activity assay with minihelix (Mh) substrate; format: biochemical; details: 100 mM MgCl2
Experimental: The reconstitution of the RNase P holoenzyme was performed as described in ([40],[19]). This protocol produces a homogeneous and functional ribozyme that can be crystallized by mixing P RNA and P protein in a 1:1.1 molar ratio in 1× TH buffer (33 mM Tris–HCl, 66 mM HEPES, pH 7.4) and 400 mM ammonium acetate (AmOAc). The mixture was heated to 95°C for 2 min in a water bath, then chilled on ice for 2 min, after which MgCl2 was added to a final concentration of 100 mM. […] This higher concentration was used in all experiments described herein. The holoenzyme was further incubated at 50°C for 10 min and 37°C for 40 min. The final concentration of holoenzyme was 333 nM (35.6 μg/ml of P RNA and 4.7 μg/ml of P protein).
The minihelix (Mh) substrate (Figure 1A) was adopted from a previously characterized RNase P substrate, pMini3bpUG ([32],[33]) and coupled to either Black Hole Quencher 1 (BHQ1) or Black Hole Quencher 2 (BHQ2) at the 5′-end and Alexa Fluor 488 at the 3′-end. This probe was purchased either from Sigma-Aldrich or Integrated DNA Technologies (IDT). A requested scale of […] yielded between 6.3 and 20 nmol (57.5 to 181 μg, enough for 1300–4000 reactions depending on the experimental substrate concentration). Before use, the minihelix was diluted from a 100 μM stock (dissolved in water) to 3.6 μM in activity buffer H (33 mM Tris–HCl, 66 mM HEPES, pH 7.4, 400 mM AmOAc and 100 mM MgCl2).
Reactions were performed in a total volume of 20 μl. Pipetting was done by hand using multichannel pipettes. First, an 18 μl reaction mixture containing 16.5 μl of activity buffer (H for Mh or L supplemented with 10% PEG 200 for bipartite pre-tRNA) and 270 nM (Mh) or 135 nM (bipartite pre-tRNA) (1.5 or 0.7 μl of the 3.6 μM stock) of the fluorescent substrate probe was pre-incubated on ice for at least 5 m in a black polystyrene 384-well microtiter microplate with a flat transparent bottom (Corning ref 3540). The holoenzyme was then added at a final concentration of 33 nM (2 μl of a 333 nM stock) in 1× TH buffer and mixed. Kinetic activity was monitored in a Synergy MX Multimode Detector (BioTek) at 37°C with rapid agitation. At least 20 readings were taken per well every 15 s. The probe was excited at 485 nm, and its emission was monitored at 535 nm with an integration time of 1 s. From the plots of relative fluorescent units (RFU) versus time, linear regression was used to determine the slopes in the linear portion of the curves, using at least 12 data points to obtain initial velocities. Non-linear fitting to obtain the Michaelis–Menten parameters was performed using GraphPad Prism® 6.01 software.
Supplementary Figure 3. FRET assays of RNase P with the fluorescent substrate are reproducible. (A) Representative plots of kinetic assays performed in a single run. The standard assay (SA), (+), was performed at 37° C in a total volume of 20 µL and contained RNase P holoenzyme at 33 nM, substrate minihelix (Mh) at 270 nM, 10% DMSO and activity buffer (AB).
The negative control assay (-) contained 100 mM CaCl2 in place of MgCl2. Ten to twelve wells were monitored simultaneously in a typical assay. (B) Zoomed view of the linear region of the kinetic assays shown in panel A. Fluorescence readings were performed every 15-20 seconds.
Linear regression calculations were done using the GraphPad Prism 7 software. (C) The coefficient Z’-factor (1) was used as an indicator of reproducibility and was calculated based on the relative fluorescence units (RFU) in the plateau phase (taken at 20 minutes). The Z’-factor has a […]
presented in this work were either measured in triplicate or confirmed in subsequent assays. (D) […]
assay is robust. The IC50 values reported in Figures 1C and 2 were calculated according to this kinetic parameter. There is a negative drift in fluorescence in the case of the negative control.
However, it should be noted that the mean value of it (-279) is much smaller than the signal of the […]
positive control (3397). […]

[3] = test system: 3'-biotinylated minihelix (Mh; pMini3bpUG) (RNA, hairpin) GAUCUGAAUGCGGAAACGCGCCAC; experiment: biolayer interferometry; details: Mg2+ 10 mM, NH4+ 100 mM (ammonium acetate); 20 mM HEPES pH 7.4, DMSO, 30°C; compound 15.6-500 µM
P protein = molecular target: T2, P protein (Thermotoga maritima, UniProt Q9X1H4); experiment: Binding hindrance of the 5′ RNA leader to the P protein (BLI); set-up: species or system T. maritima; details: compound 100 μM, 5′ RNA leader 5 μM
T2 construct: GST (cleaved yes); made in house; host or cells: E. coli BL21(DE3)pLysS
T2 sequence (Q9X1H4 1-117): T1 sequence (Q9X1H4 1-117)
Experimental: A 5′ RNA leader sequence with 10-bases 5′-GGAAAAAGAU-3′ was purchased from IDT and used at a concentration of 5 μM. This sequence is the same used to obtain the crystal structure of the RNase P holoenzyme ([19]). The His-tagged P protein was immobilized on Ni-NTA biosensors at 0.05 mg/ml (3.4 μM). […] The steps performed on the assay and their periods were: P protein immobilization (400 s), wash (100 s), baseline […] (1000 rpm), compound association (800 s), compound dissociation (200 s) (500 rpm), baseline (100 s), 5′ leader association (200 s), 5′ leader dissociation (200 s) (1000 rpm). The assay was performed at 30°C. The compounds were used at 100 μM throughout. All assay steps were performed in 20 mM HEPES pH 7.4, 100 mM ammonium acetate, 10 mM MgCl2, 5% DMSO.
5 ′ RNA leader. (A) Experimental design of 5′ RNA leader binding hindrance experiments. Figures B-F are based on the analysis region depicted in panel A, where association and dissociation of the 5′ RNA leader to the P protein (TmP) is measured over time. P protein at 3.5 µM was immobilized on Ni-NTA biosensors for 300 s, while compounds were assayed at 100 µM and the […]
binding, in contrast with hematein (E) and purpurin (F).
(1 picture or pasted object on this page, not shown here)

minihelix (Mh) = experiment: Biolayer interferometry binding to biotinylated minihelix substrate; details: BLI
Experimental: 3′-Biotinylated minihelix was purchased from Integrated DNA Technologies (IDT) (24-mer RNA sequence, 5′-[…]-3′-Biotin). The biotinylated minihelix was immobilized on Super Streptavidin (SSA) biosensors at a concentration of 10 μM. […] For the titration experiments, 10 μM of 3′-biotinylated minihelix was immobilized for 300 s on Super Streptavidin (SSA) biosensors, followed by a wash step of 100 s and association and dissociation steps of 200 s in the presence of 6 different concentrations of compound ranging from 500 to 15.6 μM. SSA biosensors with no minihelix were used to measure non-specific binding of compounds. All other parameters (buffer, instrument control, analysis) are as described above.
Supplementary Figure 16. Binding assays monitor the interaction of compounds with the minihelix (Mh). Gentian violet and methylene blue bind in a dose-dependent relationship to the artificial minihelix substrate. […]
interaction between the minihelix and (A) gentian violet (KD=8 µM ) and (B) methylene blue A 3′-biotinylated substrate minihelix at 10 µ M was immobilized on super streptavidin (SSA) biosensors for 300 s.
Supplementary Figure 17. pre-tRNA displaces bound purpurin in a dose-response […]
indicating a true competition between purpurin and pre-tRNA binding sites. […]

## N=C1C=CC(=C(c2ccc(N)cc2)c2ccc(N)cc2)C=C1 [Pararoseaniline]
[1]
  Inhibition of RNase P in fluorescence and gel verification: did not inhibit RNase P

## CCCCC(CC)CNC(=N)NC(=N)NCCCCCCNC(=N)NC(=N)NCC(CC)CCCC (stereo not drawn) [alexidine hydrochloride]
[1]
  Inhibition of RNase P in fluorescence and gel verification: seems to precipitate the holoenzyme

## Cc1cc(O)c2c(c1)C(=O)c1cc(O)cc(O)c1C2=O [emodin]
[1]
  Inhibition of RNase P in fluorescence and gel verification: did not inhibit RNase P

## Oc1c(I)cc(I)c2cccnc12 [iodoquinol, reference compound]
[1]
  Inhibition of RNase P in fluorescence and gel verification: false positive

## NC[C@H]1O[C@H](O[C@H]2[C@H](O)[C@@H](O[C@H]3O[C@H](CO)[C@@H](O)[C@H](N)[C@H]3O)[C@H](N)C[C@@H]2N)[C@H](N)[C@@H](O)[C@@H]1O [kanamycin B, reference compound]
[2]
  Inhibition of RNase P (Mh fluorescence assay): did not detect inhibition

## CN(C)c1ccc2nc3ccc(=[N+](C)C)cc-3sc2c1 [methylene blue, reference compound]
[3]
  KD: 35 µM
P protein
  Hindrance of 5′ RNA leader binding to the P protein: did not interfere with RNA leader
Minihelix (Mh); 3′-biotinylated minihelix 10 μM on SSA biosensors
  Kd: 35 µM
Minihelix (Mh); initial screening at 1 mM and titration
  Binding to the minihelix substrate: binding signal
[2]; fluorescent Mh substrate 270 nM, holoenzyme 33 nM, 10% DMSO, 37°C, 400 mM AmOAc
  IC50: 110 µM and 109 µM

## NC[C@@H]1O[C@H](O[C@H]2[C@@H](O)[C@H](O[C@@H]3[C@@H](O)[C@H](N)C[C@H](N)[C@H]3O[C@H]3O[C@H](CN)[C@@H](O)[C@H](O)[C@H]3N)O[C@@H]2CO)[C@H](N)[C@@H](O)[C@@H]1O [neomycin B, reference compound]
[2]
  Inhibition of RNase P (Mh fluorescence assay): did not detect inhibition

## O=C(N/N=C/c1ccc([N+](=O)[O-])o1)c1cc([N+](=O)[O-])cc([N+](=O)[O-])c1O [nifursol, reference compound]
[1]
  Inhibition of RNase P in fluorescence and gel verification: weak inhibitor
